# Data: PubChem BioAssay (NCI)
#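 Step 1: Grow cells in 96-well plates. Step 2: Expose to compound for 48 hours at 5 concentrations. Step 3: Interpolate endpoints linearly; if unreached, use highest concentration. Abbreviation: GI50, concentration required for 50% inhibition of growth. TGI denotes the concentration required for complete inhibition of growth.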
# Tested on: HOP-62 NSCLC
# Assay: inhibition of tumour cell growth, NCI panel, 48 h
row,Compound,TGI
1,C[C@H](CCC(=O)O)[C@H]1CC[C@H]2[C@@H]3CC[C@@H]4C[C@H](O)CC[C@]4(C)[C@H]3C[C@H](O)[C@]12C,78.6 µM
2,COC(=O)/C=C(\C)CC(O)/C=C(\C)CCC=C(C)C (stereo unspecified),> 100 µM

# Tested on: HOP-92 NSCLC
# Assay: inhibition of tumour cell growth, NCI panel, 48 h
Compound,TGI,GI50
CCCCCCOC(=O)/C=C/[C@]1(CO)C/C(=C/CC(C(C)C)C(C)C)C(=O)O1,25.4 µM,
Cc1nc2c(nc1C)-c1[nH]c3c(c1C(=O)C2=O)CCCC3=O,3.66 µM,
Cn1c(=O)c2c(nc(Cc3ccccc3)n2CC(=O)O)n(C)c1=O,> 100 µM,
C=CCCCCOc1ccccc1-c1cnc(OCCCCC=C)n1C,19.7 µM,1.81 µM
CC(C)C(=O)OCC1OC(n2c(Br)nc3c(=O)[nH]c(N)nc32)C(OC(=O)C(C)C)C1OC(=O)C(C)C (stereo unspecified),> 100 µM,
COC(=O)/C=C(\C)CC(O)/C=C(\C)CCC=C(C)C (stereo unspecified),> 100 µM,

# Tested on: HS 578T breast
# Assay: inhibition of tumour cell growth, NCI panel, 48 h
Compound,TGI,GI50
CCCCCCOC(=O)/C=C/[C@]1(CO)C/C(=C/CC(C(C)C)C(C)C)C(=O)O1,22.1 µM,
Cc1nc2c(nc1C)-c1[nH]c3c(c1C(=O)C2=O)CCCC3=O,> 59.2 µM,
Cn1c(=O)c2c(nc(Cc3ccccc3)n2CC(=O)O)n(C)c1=O,> 100 µM,
C=CCCCCOc1ccccc1-c1cnc(OCCCCC=C)n1C,23.7 µM,4.13 µM
CC(C)C(=O)OCC1OC(n2c(Br)nc3c(=O)[nH]c(N)nc32)C(OC(=O)C(C)C)C1OC(=O)C(C)C (stereo unspecified),> 100 µM,
C[C@H](CCC(=O)O)[C@H]1CC[C@H]2[C@@H]3CC[C@@H]4C[C@H](O)CC[C@]4(C)[C@H]3C[C@H](O)[C@]12C,> 100 µM,
COC(=O)/C=C(\C)CC(O)/C=C(\C)CCC=C(C)C (stereo unspecified),> 100 µM,

# Tested on: HT29 colon
# Assay: inhibition of tumour cell growth, NCI panel, 48 h
Compound,TGI,GI50
CCCCCCOC(=O)/C=C/[C@]1(CO)C/C(=C/CC(C(C)C)C(C)C)C(=O)O1,20.8 µM,
Cc1nc2c(nc1C)-c1[nH]c3c(c1C(=O)C2=O)CCCC3=O,16.2 µM,
Cn1c(=O)c2c(nc(Cc3ccccc3)n2CC(=O)O)n(C)c1=O,> 100 µM,
C=CCCCCOc1ccccc1-c1cnc(OCCCCC=C)n1C,10.2 µM,3.22 µM
CC(C)C(=O)OCC1OC(n2c(Br)nc3c(=O)[nH]c(N)nc32)C(OC(=O)C(C)C)C1OC(=O)C(C)C (stereo unspecified),40.3 µM,
C[C@H](CCC(=O)O)[C@H]1CC[C@H]2[C@@H]3CC[C@@H]4C[C@H](O)CC[C@]4(C)[C@H]3C[C@H](O)[C@]12C,> 100 µM,
COC(=O)/C=C(\C)CC(O)/C=C(\C)CCC=C(C)C (stereo unspecified),59.2 µM,

# Tested on: IGROV1 ovarian
# Assay: inhibition of tumour cell growth, NCI panel, 48 h
Compound,TGI,GI50
CCCCCCOC(=O)/C=C/[C@]1(CO)C/C(=C/CC(C(C)C)C(C)C)C(=O)O1,28.9 µM,
Cc1nc2c(nc1C)-c1[nH]c3c(c1C(=O)C2=O)CCCC3=O,11.5 µM,
Cn1c(=O)c2c(nc(Cc3ccccc3)n2CC(=O)O)n(C)c1=O,> 100 µM,
C=CCCCCOc1ccccc1-c1cnc(OCCCCC=C)n1C,20.1 µM,4.64 µM
C[C@H](CCC(=O)O)[C@H]1CC[C@H]2[C@@H]3CC[C@@H]4C[C@H](O)CC[C@]4(C)[C@H]3C[C@H](O)[C@]12C,86.7 µM,
COC(=O)/C=C(\C)CC(O)/C=C(\C)CCC=C(C)C (stereo unspecified),> 100 µM,

# Tested on: K-562 leukemia
# Assay: inhibition of tumour cell growth, NCI panel, 48 h
Compound,TGI,GI50
CCCCCCOC(=O)/C=C/[C@]1(CO)C/C(=C/CC(C(C)C)C(C)C)C(=O)O1,31.2 µM,
Cc1nc2c(nc1C)-c1[nH]c3c(c1C(=O)C2=O)CCCC3=O,5.59 µM,
C=CCCCCOc1ccccc1-c1cnc(OCCCCC=C)n1C,14.1 µM,3.74 µM
C[C@H](CCC(=O)O)[C@H]1CC[C@H]2[C@@H]3CC[C@@H]4C[C@H](O)CC[C@]4(C)[C@H]3C[C@H](O)[C@]12C,> 100 µM,
COC(=O)/C=C(\C)CC(O)/C=C(\C)CCC=C(C)C (stereo unspecified),> 100 µM,

# Tested on: KM12 colon
# Assay: inhibition of tumour cell growth, NCI panel, 48 h
Compound,TGI,GI50
CCCCCCOC(=O)/C=C/[C@]1(CO)C/C(=C/CC(C(C)C)C(C)C)C(=O)O1,33.3 µM,
Cc1nc2c(nc1C)-c1[nH]c3c(c1C(=O)C2=O)CCCC3=O,4.43 µM,
Cn1c(=O)c2c(nc(Cc3ccccc3)n2CC(=O)O)n(C)c1=O,> 100 µM,
C=CCCCCOc1ccccc1-c1cnc(OCCCCC=C)n1C,13.1 µM,3.3 µM
C[C@H](CCC(=O)O)[C@H]1CC[C@H]2[C@@H]3CC[C@@H]4C[C@H](O)CC[C@]4(C)[C@H]3C[C@H](O)[C@]12C,> 100 µM,
COC(=O)/C=C(\C)CC(O)/C=C(\C)CCC=C(C)C (stereo unspecified),> 100 µM,

# Tested on: LOX IMVI melanoma
# Assay: inhibition of tumour cell growth, NCI panel, 48 h
Compound,TGI,GI50
CCCCCCOC(=O)/C=C/[C@]1(CO)C/C(=C/CC(C(C)C)C(C)C)C(=O)O1,24.6 µM,
Cc1nc2c(nc1C)-c1[nH]c3c(c1C(=O)C2=O)CCCC3=O,2.87 µM,
Cn1c(=O)c2c(nc(Cc3ccccc3)n2CC(=O)O)n(C)c1=O,> 100 µM,
C=CCCCCOc1ccccc1-c1cnc(OCCCCC=C)n1C,17 µM,4.89 µM
CC(C)C(=O)OCC1OC(n2c(Br)nc3c(=O)[nH]c(N)nc32)C(OC(=O)C(C)C)C1OC(=O)C(C)C (stereo unspecified),55.5 µM,
C[C@H](CCC(=O)O)[C@H]1CC[C@H]2[C@@H]3CC[C@@H]4C[C@H](O)CC[C@]4(C)[C@H]3C[C@H](O)[C@]12C,> 100 µM,
COC(=O)/C=C(\C)CC(O)/C=C(\C)CCC=C(C)C (stereo unspecified),> 100 µM,

# Tested on: M14 melanoma
# Assay: inhibition of tumour cell growth, NCI panel, 48 h
Compound,TGI,GI50
CCCCCCOC(=O)/C=C/[C@]1(CO)C/C(=C/CC(C(C)C)C(C)C)C(=O)O1,25.1 µM,
Cc1nc2c(nc1C)-c1[nH]c3c(c1C(=O)C2=O)CCCC3=O,3.4 µM,
Cn1c(=O)c2c(nc(Cc3ccccc3)n2CC(=O)O)n(C)c1=O,> 100 µM,
C=CCCCCOc1ccccc1-c1cnc(OCCCCC=C)n1C,14.6 µM,2.88 µM
CC(C)C(=O)OCC1OC(n2c(Br)nc3c(=O)[nH]c(N)nc32)C(OC(=O)C(C)C)C1OC(=O)C(C)C (stereo unspecified),> 100 µM,
C[C@H](CCC(=O)O)[C@H]1CC[C@H]2[C@@H]3CC[C@@H]4C[C@H](O)CC[C@]4(C)[C@H]3C[C@H](O)[C@]12C,> 100 µM,
COC(=O)/C=C(\C)CC(O)/C=C(\C)CCC=C(C)C (stereo unspecified),> 100 µM,

# Tested on: MALME-3M melanoma
# Assay: inhibition of tumour cell growth, NCI panel, 48 h
Compound,TGI,GI50
CCCCCCOC(=O)/C=C/[C@]1(CO)C/C(=C/CC(C(C)C)C(C)C)C(=O)O1,25.7 µM,
Cc1nc2c(nc1C)-c1[nH]c3c(c1C(=O)C2=O)CCCC3=O,2.82 µM,
Cn1c(=O)c2c(nc(Cc3ccccc3)n2CC(=O)O)n(C)c1=O,> 100 µM,
C=CCCCCOc1ccccc1-c1cnc(OCCCCC=C)n1C,16.4 µM,3.63 µM
CC(C)C(=O)OCC1OC(n2c(Br)nc3c(=O)[nH]c(N)nc32)C(OC(=O)C(C)C)C1OC(=O)C(C)C (stereo unspecified),> 100 µM,
C[C@H](CCC(=O)O)[C@H]1CC[C@H]2[C@@H]3CC[C@@H]4C[C@H](O)CC[C@]4(C)[C@H]3C[C@H](O)[C@]12C,> 100 µM,
COC(=O)/C=C(\C)CC(O)/C=C(\C)CCC=C(C)C (stereo unspecified),> 100 µM,

# Tested on: MCF7 breast
# Assay: inhibition of tumour cell growth, NCI panel, 48 h
Compound,TGI,GI50
CCCCCCOC(=O)/C=C/[C@]1(CO)C/C(=C/CC(C(C)C)C(C)C)C(=O)O1,30.4 µM,
Cc1nc2c(nc1C)-c1[nH]c3c(c1C(=O)C2=O)CCCC3=O,2.98 µM,
C=CCCCCOc1ccccc1-c1cnc(OCCCCC=C)n1C,11.6 µM,2.89 µM
CC(C)C(=O)OCC1OC(n2c(Br)nc3c(=O)[nH]c(N)nc32)C(OC(=O)C(C)C)C1OC(=O)C(C)C (stereo unspecified),> 100 µM,
C[C@H](CCC(=O)O)[C@H]1CC[C@H]2[C@@H]3CC[C@@H]4C[C@H](O)CC[C@]4(C)[C@H]3C[C@H](O)[C@]12C,> 100 µM,
COC(=O)/C=C(\C)CC(O)/C=C(\C)CCC=C(C)C (stereo unspecified),> 100 µM,

# Tested on: MDA-MB-231 breast
# Assay: inhibition of tumour cell growth, NCI panel, 48 h
Compound,TGI,GI50
Cc1nc2c(nc1C)-c1[nH]c3c(c1C(=O)C2=O)CCCC3=O,3.4 µM,
Cn1c(=O)c2c(nc(Cc3ccccc3)n2CC(=O)O)n(C)c1=O,> 100 µM,
C=CCCCCOc1ccccc1-c1cnc(OCCCCC=C)n1C,20.3 µM,5.19 µM
CC(C)C(=O)OCC1OC(n2c(Br)nc3c(=O)[nH]c(N)nc32)C(OC(=O)C(C)C)C1OC(=O)C(C)C (stereo unspecified),> 100 µM,
C[C@H](CCC(=O)O)[C@H]1CC[C@H]2[C@@H]3CC[C@@H]4C[C@H](O)CC[C@]4(C)[C@H]3C[C@H](O)[C@]12C,> 100 µM,
COC(=O)/C=C(\C)CC(O)/C=C(\C)CCC=C(C)C (stereo unspecified),> 100 µM,

# Tested on: MDA-MB-435
# Assay: inhibition of tumour cell growth, NCI panel, 48 h
Compound,TGI,GI50
CCCCCCOC(=O)/C=C/[C@]1(CO)C/C(=C/CC(C(C)C)C(C)C)C(=O)O1,15.1 µM,
Cc1nc2c(nc1C)-c1[nH]c3c(c1C(=O)C2=O)CCCC3=O,1.48 µM,
Cn1c(=O)c2c(nc(Cc3ccccc3)n2CC(=O)O)n(C)c1=O,> 100 µM,
C=CCCCCOc1ccccc1-c1cnc(OCCCCC=C)n1C,5.22 µM,2.08 µM
C[C@H](CCC(=O)O)[C@H]1CC[C@H]2[C@@H]3CC[C@@H]4C[C@H](O)CC[C@]4(C)[C@H]3C[C@H](O)[C@]12C,> 100 µM,

# Tested on: MDA-N
# Assay: inhibition of tumour cell growth, NCI panel, 48 h
row,Compound,TGI
1,CCCCCCOC(=O)/C=C/[C@]1(CO)C/C(=C/CC(C(C)C)C(C)C)C(=O)O1,5.35 µM
2,Cc1nc2c(nc1C)-c1[nH]c3c(c1C(=O)C2=O)CCCC3=O,1.9 µM
3,Cn1c(=O)c2c(nc(Cc3ccccc3)n2CC(=O)O)n(C)c1=O,> 100 µM
4,CC(C)C(=O)OCC1OC(n2c(Br)nc3c(=O)[nH]c(N)nc32)C(OC(=O)C(C)C)C1OC(=O)C(C)C (stereo unspecified),> 100 µM
5,C[C@H](CCC(=O)O)[C@H]1CC[C@H]2[C@@H]3CC[C@@H]4C[C@H](O)CC[C@]4(C)[C@H]3C[C@H](O)[C@]12C,> 100 µM
6,COC(=O)/C=C(\C)CC(O)/C=C(\C)CCC=C(C)C (stereo unspecified),> 100 µM

# Tested on: MOLT-4 leukemia
# Assay: inhibition of tumour cell growth, NCI panel, 48 h
Compound,TGI,GI50
CCCCCCOC(=O)/C=C/[C@]1(CO)C/C(=C/CC(C(C)C)C(C)C)C(=O)O1,25.6 µM,
Cc1nc2c(nc1C)-c1[nH]c3c(c1C(=O)C2=O)CCCC3=O,5.67 µM,
Cn1c(=O)c2c(nc(Cc3ccccc3)n2CC(=O)O)n(C)c1=O,> 100 µM,
C=CCCCCOc1ccccc1-c1cnc(OCCCCC=C)n1C,18.7 µM,4.54 µM
CC(C)C(=O)OCC1OC(n2c(Br)nc3c(=O)[nH]c(N)nc32)C(OC(=O)C(C)C)C1OC(=O)C(C)C (stereo unspecified),48.2 µM,
C[C@H](CCC(=O)O)[C@H]1CC[C@H]2[C@@H]3CC[C@@H]4C[C@H](O)CC[C@]4(C)[C@H]3C[C@H](O)[C@]12C,62.3 µM,
COC(=O)/C=C(\C)CC(O)/C=C(\C)CCC=C(C)C (stereo unspecified),55.3 µM,

# Tested on: NCI-H226 lung
# Assay: inhibition of tumour cell growth, NCI panel, 48 h
row,Compound,TGI
1,CCCCCCOC(=O)/C=C/[C@]1(CO)C/C(=C/CC(C(C)C)C(C)C)C(=O)O1,16.7 µM
2,Cc1nc2c(nc1C)-c1[nH]c3c(c1C(=O)C2=O)CCCC3=O,3.04 µM
3,Cn1c(=O)c2c(nc(Cc3ccccc3)n2CC(=O)O)n(C)c1=O,> 100 µM
